The values below come from US20260364184A1, “COMPOUND BASED ON OXOISOINDOLINYL-SUBSTITUTED TETRAHYDROPYRIMIDINE-DIONE AND USE THEREOF” (GLUETACS THERAPEUTICS (SHANGHAI) CO., LTD., priority 2023, published 2026).

One assay concerns the target T1, BRG1 (Homo sapiens, UniProt P51532).
T1 construct: expression of target proteins in cells; endogenous in cells
In words: Western blot degradation of BRG1 (SMARCA4). Format: cell-based. The settings on record: Molt-4 Cell; 24 hours. As for the experimental part: (§1) Conventional Western blot assay was performed to evaluate the effects of the compounds of the present disclosure on the expression of target proteins in cells.
(§2) (1) Cell Seeding and Protein Harvesting: The selected cells were processed according to the cell seeding procedure and protein harvesting procedure in Table II-2.
(§3) (2) To the collected supernatant, 5×SDS sample loading buffer was added, followed by denaturation at 95 °C for 5 minutes. The denatured samples were then separated by SDS-PAGE electrophoresis on a polyacrylamide gel. Proteins were transferred to a nitrocellulose membrane (0.45 μm NC membrane), blocked with blocking buffer at room temperature for 1 hour, and subjected to antibody incubation and development procedures according to the antibody manufacturer's instructions (Cell Signaling Technology).
(§4) Half-Maximal Degradation Concentration value (the drug concentration required for degrading proteins by 50%, abbreviated as DC50) reads method: comparing the grayscale values of Western blot bands from drug-treated samples with those from blank DMSO-treated controls, and identifying the drug concentration range at which the grayscale value is half that of the DMSO-treated control bands.
(§5) DC50 values can be calculated using ImageJ software to measure grayscale values of Western blot bands from drug-treated samples. The concentration-response curve is fitted to estimate the drug concentration corresponding to half the grayscale value.
(§6) Target protein remaining (%) refers to the percentage of target protein remaining in cells after treatment with protein degrader compounds.
(§7) Calculation method for target protein remaining (%): Use ImageJ software to measure grayscale values of Western blot bands from drug (protein degrader)-treated samples. The grayscale value of drug-treated bands is divided by that of internal control protein bands, and the resulting quotient is normalized to obtain the relative percentage of remaining target protein after protein degrader treatment.
(§8) Target protein degradation rate (%)=1−target protein remaining (%).
(In general: Immunoblotting shows a protein as a band on a membrane.)

The next assay concerns the target T2, BRM (Homo sapiens, UniProt P51531).
T2 construct: expression of target proteins in cells; endogenous in cells
In words: Western blot degradation of BRM (SMARCA2). In kind it is cell-based. As to conditions: Molt-4 Cell; 24 hours. The procedure:
as §1, §2, §3, §4, §5, §6, §7, §8

The subject of assay [1] is Human neuroblastoma cell line (SK-N-AS). Briefly: Inhibition of SK-N-AS cell proliferation (CellTiter luminescent viability). As to conditions: Table IK1, AKT inhibitor-based, 96 hours; for inhibition at 0.01 µM: 10 nM, read-out: Inhibition Rate at 10 nM (%); for inhibition at 0.5 µM: 500 nM, read-out: Inhibition Rate at 500 nM (%). In kind it is cell-based.
The test system of another assay is AKT. In words: Western blot degradation of AKT. Format: cell-based. The settings on record: hPBMC Cell; 24 hours. The procedure:
as §1, §2, §3, §4, §5, §6, §7, §8

Assay [2] concerns Human acute lymphocytic leukemia T lymphocytes cell line (CCRF-CEM). In words: Inhibition of CCRF-CEM cell proliferation (CellTiter luminescent viability). In kind it is cell-based. The settings on record: Homo sapiens, 96 h, Table IH2, BCL-2 inhibitor-based; for inhibition at 0.01 µM: 10 nM, read-out: Inhibition Rate at 10 nM (%); for inhibition at 0.5 µM: 500 nM, read-out: Inhibition Rate at 500 nM (%).

The test system of assay [3] is Human prostate cancer cell line (NCI-H358). In words: Inhibition of NCI-H358 cell proliferation (CellTiter luminescent viability). The settings on record: Table IH1, BCL-2 inhibitor-based, 96 hours; for inhibition at 0.01 µM: NCI-H358, 10 nM, read-out: Inhibition Rate at 10 nM (%); for inhibition at 0.5 µM: NCI-H358, 500 nM, read-out: Inhibition Rate at 500 nM (%). As for the experimental part:
The tumor cells used herein were cultured in a cell culture medium listed in table 3 at 37 °C in an incubator with 5% CO2. Prior to experimentation, all cell lines used were correctly identified by STR profiling, and tested negative for mycoplasma contamination using a mycoplasma detection kit through routine screenings.
The IC50 values of the compounds of the present disclosure (including the compounds in Table 1, Table 2, and Examples 1-468) were determined using the CellTiter-Meiluncell Luminescent Cell Viability Assay Kit from Dalian Meilun Biotech Co., Ltd. The detailed procedure is as follows: Tumor cells were seeded in 96-well cell culture plates at the densities specified in Table 4. On the following day, the test compounds of the present disclosure were subjected to serial dilution. The dilution can be performed according to one of the following two methods: • (1) The first dilution method: The test compounds of the present disclosure (including the compounds in Table 1, Table 2, and Examples 1-468) were subjected to 5-fold serial dilutions starting from a highest concentration of 2000 μM, resulting in a total of 9 concentrations from high to low (2000, 400, 80, 16, 3.2, 0.64, 0.128, 0.0256, 0.00512 μM). Subsequently, 0.5 μL of the test compound dilution was transferred into the 96-well plate containing the cells, with each well containing 100 μL of cell culture medium. […] Into the 96-well plate, the diluted test compounds and corresponding detection reagents were added, resulting in final test compound concentrations of 500 nM and 10 nM, respectively. The experimental procedure is described below using the diluted 2 μM test compound as an example.
0.5 μL of the aforementioned diluted compound of the present disclosure (including the compounds in Table 1, Table 2, and Examples 1-468) was added to the seeded cells in 100 μL of medium, yielding a final test compound concentration of 10 nM. After the cells were treated with the compounds of the present disclosure for a specified period, the cell viability assay reagent was added to the culture medium according to the kit's instructions to determine cell viability. […] All controls were treated using the same procedure as the compounds of the present disclosure. The growth inhibition curves for the compounds of the present disclosure were plotted using Prism GraphPad software, and the IC50 values were calculated therefrom.

Assay [4] deals with Human Acute T Lymphoblastic Leukemia Cells (Molt-4). Briefly: Inhibition of Molt-4 cell proliferation (CellTiter luminescent viability). In kind it is cell-based. The settings on record: Homo sapiens, MOLT-4, 96 h, Table IH3, BCL-2 inhibitor-based, 96 hours; for inhibition at 0.01 µM: Molt-4, 10 nM, read-out: Inhibition Rate at 10 nM (%); for inhibition at 0.5 µM: Molt-4, 500 nM, read-out: Inhibition Rate at 500 nM (%).

Assay [5] addresses T3, human Cereblon WT GST-tagged protein (CRBN) (Homo sapiens, UniProt Q96SW2).
T3 construct: purchased CISBIO 64BDCRBNPEH
In words: CRBN binding by HTRF (Cereblon binding kit). Put shortly: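 GST-tagged human Cereblon WT was incubated 3 h at room temperature with compound, thalidomide-Re tracer and Eu anti-GST antibody. Final compound concentrations were 10 to 0.00064 µM (7 points) or 2 and 0.5 µM. Inhibition rate was calculated from HTRF 665/620 nm ratios versus solvent and blank controls.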
(Time-resolved FRET reads energy transfer from a long-lived donor to a nearby acceptor.)

T2 sequence (P51531 whole entry): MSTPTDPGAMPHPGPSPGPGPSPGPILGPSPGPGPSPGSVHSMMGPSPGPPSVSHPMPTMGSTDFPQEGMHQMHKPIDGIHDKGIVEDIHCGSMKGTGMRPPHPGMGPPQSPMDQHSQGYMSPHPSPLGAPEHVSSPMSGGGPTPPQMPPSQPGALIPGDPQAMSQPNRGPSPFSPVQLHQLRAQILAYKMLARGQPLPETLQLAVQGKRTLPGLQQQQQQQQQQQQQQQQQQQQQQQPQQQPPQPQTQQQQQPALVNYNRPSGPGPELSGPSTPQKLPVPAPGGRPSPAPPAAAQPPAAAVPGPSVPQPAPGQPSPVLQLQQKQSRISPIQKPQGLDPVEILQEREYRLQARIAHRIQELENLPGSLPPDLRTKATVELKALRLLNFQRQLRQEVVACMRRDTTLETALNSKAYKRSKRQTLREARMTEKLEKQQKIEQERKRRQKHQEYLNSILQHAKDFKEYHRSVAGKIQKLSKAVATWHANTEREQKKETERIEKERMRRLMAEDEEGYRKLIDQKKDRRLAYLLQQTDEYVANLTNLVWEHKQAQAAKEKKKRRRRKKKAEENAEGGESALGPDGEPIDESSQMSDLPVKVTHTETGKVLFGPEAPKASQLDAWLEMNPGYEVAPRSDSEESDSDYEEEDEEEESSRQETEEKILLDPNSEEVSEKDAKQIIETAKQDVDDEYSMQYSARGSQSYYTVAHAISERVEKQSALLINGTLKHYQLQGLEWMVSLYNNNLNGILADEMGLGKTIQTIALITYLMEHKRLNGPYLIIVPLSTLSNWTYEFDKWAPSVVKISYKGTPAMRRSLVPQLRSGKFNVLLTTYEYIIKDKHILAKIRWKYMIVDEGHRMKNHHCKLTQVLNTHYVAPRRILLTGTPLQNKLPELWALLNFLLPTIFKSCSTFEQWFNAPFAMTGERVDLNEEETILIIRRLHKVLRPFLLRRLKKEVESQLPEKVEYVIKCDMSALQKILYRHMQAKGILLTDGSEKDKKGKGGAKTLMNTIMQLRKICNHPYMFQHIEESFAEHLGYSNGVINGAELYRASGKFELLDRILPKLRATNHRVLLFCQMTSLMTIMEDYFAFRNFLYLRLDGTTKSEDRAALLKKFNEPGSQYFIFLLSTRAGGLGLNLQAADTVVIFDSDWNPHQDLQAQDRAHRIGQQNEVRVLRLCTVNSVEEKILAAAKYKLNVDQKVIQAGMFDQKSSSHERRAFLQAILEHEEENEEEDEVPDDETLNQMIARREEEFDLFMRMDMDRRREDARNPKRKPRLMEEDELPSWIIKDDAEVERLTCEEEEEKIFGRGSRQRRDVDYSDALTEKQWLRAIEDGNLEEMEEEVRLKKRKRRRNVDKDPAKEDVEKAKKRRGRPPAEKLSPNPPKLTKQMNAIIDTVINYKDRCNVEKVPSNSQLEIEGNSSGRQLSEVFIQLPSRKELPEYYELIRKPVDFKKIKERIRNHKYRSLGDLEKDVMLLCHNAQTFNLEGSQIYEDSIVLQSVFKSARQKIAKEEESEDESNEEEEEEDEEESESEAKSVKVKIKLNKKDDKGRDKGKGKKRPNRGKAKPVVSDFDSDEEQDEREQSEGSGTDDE
T1 sequence (P51532 whole entry): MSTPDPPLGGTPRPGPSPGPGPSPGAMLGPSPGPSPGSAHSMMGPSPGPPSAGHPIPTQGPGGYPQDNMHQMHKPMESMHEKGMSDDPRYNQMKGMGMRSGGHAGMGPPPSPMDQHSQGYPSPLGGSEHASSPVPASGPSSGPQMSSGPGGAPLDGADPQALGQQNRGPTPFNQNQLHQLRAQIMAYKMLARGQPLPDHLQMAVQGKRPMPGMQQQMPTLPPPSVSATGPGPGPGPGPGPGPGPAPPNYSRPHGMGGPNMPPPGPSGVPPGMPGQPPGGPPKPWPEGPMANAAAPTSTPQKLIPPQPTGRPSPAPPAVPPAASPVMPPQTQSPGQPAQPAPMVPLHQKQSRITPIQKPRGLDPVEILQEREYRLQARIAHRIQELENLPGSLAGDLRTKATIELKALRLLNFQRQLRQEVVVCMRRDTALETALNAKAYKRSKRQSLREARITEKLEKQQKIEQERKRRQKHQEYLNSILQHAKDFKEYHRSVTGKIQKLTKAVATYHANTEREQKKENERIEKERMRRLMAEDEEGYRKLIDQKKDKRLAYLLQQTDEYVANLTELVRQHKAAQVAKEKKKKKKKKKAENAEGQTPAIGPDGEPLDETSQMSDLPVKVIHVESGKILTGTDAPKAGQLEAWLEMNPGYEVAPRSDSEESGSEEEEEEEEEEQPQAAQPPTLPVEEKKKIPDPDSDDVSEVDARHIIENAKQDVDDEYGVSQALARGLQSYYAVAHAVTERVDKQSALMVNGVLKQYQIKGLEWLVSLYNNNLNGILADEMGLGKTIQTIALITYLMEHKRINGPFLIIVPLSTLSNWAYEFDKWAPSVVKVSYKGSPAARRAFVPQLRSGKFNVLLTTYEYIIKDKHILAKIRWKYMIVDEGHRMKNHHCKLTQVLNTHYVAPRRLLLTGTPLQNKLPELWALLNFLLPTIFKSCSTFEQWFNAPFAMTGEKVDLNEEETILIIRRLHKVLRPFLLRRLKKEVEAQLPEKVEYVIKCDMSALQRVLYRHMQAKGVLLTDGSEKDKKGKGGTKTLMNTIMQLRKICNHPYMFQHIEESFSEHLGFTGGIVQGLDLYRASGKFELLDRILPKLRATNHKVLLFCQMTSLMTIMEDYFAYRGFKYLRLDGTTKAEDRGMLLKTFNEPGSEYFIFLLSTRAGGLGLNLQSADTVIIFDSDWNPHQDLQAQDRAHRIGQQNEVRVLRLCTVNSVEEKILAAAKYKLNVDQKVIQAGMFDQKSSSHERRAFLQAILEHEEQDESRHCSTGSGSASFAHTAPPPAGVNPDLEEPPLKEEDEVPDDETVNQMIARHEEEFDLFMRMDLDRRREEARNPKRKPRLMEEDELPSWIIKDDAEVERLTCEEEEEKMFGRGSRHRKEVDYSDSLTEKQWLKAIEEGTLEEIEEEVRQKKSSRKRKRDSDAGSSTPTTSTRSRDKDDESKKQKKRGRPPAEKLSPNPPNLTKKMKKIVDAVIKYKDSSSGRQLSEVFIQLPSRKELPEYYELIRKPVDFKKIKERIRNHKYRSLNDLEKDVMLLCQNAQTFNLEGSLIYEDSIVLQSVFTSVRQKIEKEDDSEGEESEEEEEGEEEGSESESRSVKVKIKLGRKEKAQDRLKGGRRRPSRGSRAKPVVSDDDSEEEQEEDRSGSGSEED
T3 sequence (Q96SW2 whole entry): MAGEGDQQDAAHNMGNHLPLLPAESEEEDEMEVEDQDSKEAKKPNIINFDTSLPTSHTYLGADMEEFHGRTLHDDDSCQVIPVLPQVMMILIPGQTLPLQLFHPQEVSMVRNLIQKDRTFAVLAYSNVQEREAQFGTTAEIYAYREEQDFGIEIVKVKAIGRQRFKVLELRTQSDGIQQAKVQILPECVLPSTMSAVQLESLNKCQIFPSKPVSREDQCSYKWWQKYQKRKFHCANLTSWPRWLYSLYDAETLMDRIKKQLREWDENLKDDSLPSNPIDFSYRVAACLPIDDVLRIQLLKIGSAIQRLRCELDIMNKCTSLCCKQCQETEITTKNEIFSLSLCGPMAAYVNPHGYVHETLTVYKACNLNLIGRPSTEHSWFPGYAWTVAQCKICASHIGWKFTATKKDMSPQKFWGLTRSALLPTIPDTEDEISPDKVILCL

`Nc1nnc(-c2cc(F)ccc2O)cc1N1CCN(CC2CCN(c3ccc4c(c3)C(=O)N(N3CCC(=O)NC3=O)C4=O)CC2)CC1` [GT-05068, 5-(4-((4-(3-amino-6-(5-fluoro-2-hydroxyphenyl)pyridazin-4-yl)piperazin-1-yl)methyl)piperidin-1-yl)-2-(2,4-dioxotetrahydropyrimidin-1(2H)-yl)isoindoline-1,3-dione]: the “Degradation of substrate protein BRG1 (substrate protein remaining %)” value on BRG1 was “B (80%<substrate protein remaining %≤100%)”. Also, the “Degradation of substrate protein BRM (substrate protein remaining %)” value on BRM is recorded as “A (0%≤substrate protein remaining %≤80%)”.

As for `Nc1nnc(-c2ccccc2O)cc1N1CCN(CC2CCN(c3cccc4c3C(=O)N(N3CCC(=O)NC3=O)C4=O)CC2)CC1` [GT-05070, 4-(4-((4-(3-amino-6-(2-hydroxyphenyl)pyridazin-4-yl)piperazin-1-yl)methyl)piperidin-1-yl)-2-(2,4-dioxotetrahydropyrimidin-1(2H)-yl)isoindoline-1,3-dione], the “Degradation of substrate protein BRG1 (substrate protein remaining %)” value on BRG1 was “B (80%<substrate protein remaining %≤100%)”. Also, on BRM, the “Degradation of substrate protein BRM (substrate protein remaining %)” value is reported as “A (0%≤substrate protein remaining %≤80%)”.

Regarding `Cn1ncc(Cl)c1-c1cc(C(=O)N[C@@H](Cc2cccc(F)c2)CN2CCN(Cc3ccc4c(c3)CN(N3CCC(=O)NC3=O)C4=O)CC2)sc1Cl` [GT-08576, (S)-5-chloro-4-(4-chloro-1-methyl-1H-pyrazol-5-yl)-N-(1-(4-((2-(2,4-dioxotetrahydropyrimidin-1(2H)-yl)-1-oxoisoindolin-5-yl)methyl)piperazin-1-yl)-3-(3-fluorophenyl)propan-2-yl)thiophene-2-carboxamide], in assay [1], the inhibition (as a rule, the relative decrease from the control value, in per cent) at 0.01 µM lay in the range of 15 to 20% and the inhibition at 0.5 µM was in the range of 20 to 30%. Also, the “Degradation of substrate protein AKT (substrate protein remaining %)” value in the assay with AKT is recorded as “A (0%≤substrate protein remaining %≤80%)”.

Consider `Cn1ncc(Cl)c1-c1cc(C(=O)N[C@H](CNCc2ccc3c(c2)CN(N2CCC(=O)NC2=O)C3=O)Cc2ccc(F)c(F)c2)oc1Cl` [GT-08574, (S)-5-chloro-4-(4-chloro-1-methyl-1H-pyrazol-5-yl)-N-(1-(3,4-difluorophenyl)-3-(((2-(2,4-dioxotetrahydropyrimidin-1(2H)-yl)-1-oxoisoindolin-5-yl)methyl)amino)propan-2-yl) furan-2-carboxamide], for which, in assay [1], the inhibition at 0.01 µM lay in the range of 5 to 10% and the inhibition at 0.5 µM fell in the range of 20 to 30%. Also, in the assay on AKT, the “Degradation of substrate protein AKT (substrate protein remaining %)” value is “A (0%≤substrate protein remaining %≤80%)”.

Turning to `Nc1nnc(-c2ccccc2O)cc1N1CCN(Cc2ccc3c(c2)C(=O)N(N2CCC(=O)NC2=O)C3=O)CC1` [GT-05071, 5-((4-(3-amino-6-(2-hydroxyphenyl)pyridazin-4-yl)piperazin-1-yl)methyl)-2-(2,4-dioxotetrahydropyrimidin-1(2H)-yl)isoindoline-1,3-dione], the “Degradation of substrate protein BRG1 (substrate protein remaining %)” value at BRG1 was “B (80%<substrate protein remaining %≤100%)”. In addition, the “Degradation of substrate protein BRM (substrate protein remaining %)” value at BRM was “A (0%≤substrate protein remaining %≤80%)”.

For the molecule `CC1(C)CCC(c2ccc(Cl)cc2)=C(CN2CCN(c3ccc(C(=O)NS(=O)(=O)c4ccc(N[C@H](CCN5CC6CCC(C5)N6Cc5ccc6c(c5)CN(N5CCC(=O)NC5=O)C6=O)CSc5ccccc5)c(S(=O)(=O)C(F)(F)F)c4)cc3)CC2)C1` [GT-07813, 4-(4-((4′-chloro-4,4-dimethyl-3,4,5,6-tetrahydro-[1,1′-biphenyl]-2-yl)methyl)piperazin-1-yl)-N-((4-(((2R)-4-(8-((2-(2,4-dioxotetrahydropyrimidin-1(2H)-yl)-1-oxoisoindolin-5-yl)methyl)-3,8-diazabicyclo[3.2.1]octan-3-yl)-1-(phenylthio)butan-2-yl)amino)-3-((trifluoromethyl)sulfonyl)phenyl)sulfonyl)benzamide], the inhibition at 0.01 µM fell in the range of 5 to 10% in assay [2], 15 to 20% in assay [3] and 10 to 15% in assay [4]. Also, the inhibition at 0.5 µM lay within 60 to 70% in assay [2], 20 to 30% in assay [3] and 80 to 100% in assay [4].

For `CC1(C)CCC(CN2CCN(c3ccc(C(=O)NS(=O)(=O)c4ccc(NCC5CCOCC5)c([N+](=O)[O-])c4)c(Oc4cnc5[nH]ccc5c4)c3)CC2)=C(c2ccc(Cl)cc2)C1` [ABT-199, Venetoclax, reference compound], the results for the inhibition at 0.01 µM in assay [2], in assay [3] and in assay [4] were -5 to 0%, 5 to 10% and -5 to 0%, respectively. For the same molecule, the inhibition at 0.5 µM was -5 to 0% in assay [2], 5 to 10% in assay [3] and 30 to 40% in assay [4].

As for `Cn1ncc(Cl)c1-c1cc(C(=O)N[C@H](CNCC2CCN(c3ccc4c(c3)C(=O)N(N3CCC(=O)NC3=O)C4=O)CC2)Cc2ccc(F)c(F)c2)oc1Cl` [GT-08584, (S)-5-chloro-4-(4-chloro-1-methyl-1H-pyrazol-5-yl)-N-(1-(3,4-difluorophenyl)-3-(((1-(2-(2,4-dioxotetrahydropyrimidin-1(2H)-yl)-1,3-dioxoisoindolin-5-yl)piperidin-4-yl)methyl)amino)propan-2-yl) furan-2-carboxamide], the inhibition at 0.5 µM in assay [5] (0.5 μM, read-out: Inhibition Rate at 0.5 μM (%)) fell in the range of 10 to 20%. Also, the inhibition at 2 µM in assay [5] (2 μM, read-out: Inhibition Rate at 2 μM (%)) is 53 to 60%. In the assay with AKT, the “Degradation of substrate protein AKT (substrate protein remaining %)” value is “A (0%≤substrate protein remaining %≤80%)”.

As for `Cn1ncc(Cl)c1-c1cc(C(=O)N[C@H](CNCc2ccc3c(c2)C(=O)N(N2CCC(=O)NC2=O)C3=O)Cc2cccc(F)c2)sc1Cl` [GT-08577, (S)-5-chloro-4-(4-chloro-1-methyl-1H-pyrazol-5-yl)-N-(1-(((2-(2,4-dioxotetrahydropyrimidin-1(2H)-yl)-1,3-dioxoisoindolin-5-yl)methyl)amino)-3-(3-fluorophenyl)propan-2-yl)thiophene-2-carboxamide], the “Degradation of substrate protein AKT (substrate protein remaining %)” value in the assay on AKT is reported as “A (0%≤substrate protein remaining %≤80%)”.
